The results in this text go back to US20160206645A1, “COMBINATION THERAPIES FOR TREATMENT OF HCV” (priority 2015, published 2016).

Data set [1] in a line: Pharmacokinetic analysis at week 2 and week 8 (Example 5). Type of data set: in vivo, human.
Data set [2] is described as follows: Plasma PK parameters at Week 2 and Week 8, interim analysis (Example 4). Type of data set: in vivo, human. Further details: AUC: concentration or dose not given beside the values. Conditions: for Cmax / AUC: human. How it is done:
Methods: HCV treatment-naïve or (peg)IFN±ribavirin treatment-experienced GT1/4-infected cirrhotic pts≧18 yrs with Child-Pugh (CP) score<7 (Class A) with evidence of portal hypertension or 7-9 (Class B) were enrolled. Pts received 12 wks of SMV (150 mg once daily [QD]), DCV (60 mg QD) and SOF (400 mg QD). Primary efficacy endpoint: sustained virologic response 12 wks after end of treatment (EOT, SVR12). Key secondary endpoints: SVR4, on-treatment failure, viral relapse, PK and safety.

[3] abbreviates: plasma, oral, Week 2, Child-Pugh A (n = 19).
The mark [4] stands for this setting: plasma, oral, Week 2, Child-Pugh B (n = 9).
[5] abbreviates: plasma, oral, Week 8, Child-Pugh A (n = 18).
Where [6] appears, read: plasma, oral, Week 8, Child-Pugh B (n = 9).
Where [7] appears, read: in vivo, Week 2, Child-Pugh A (n = 19), plasma.
[8] abbreviates: in vivo, Week 2, Child-Pugh B (n = 9), plasma.
Where [9] appears, read: in vivo, Week 8, Child-Pugh A (n = 18), plasma.
Setting [10] is: in vivo, Week 8, Child-Pugh B (n = 9), plasma.

For orientation: Cmax means the peak of the concentration-time curve. A word on the AUC: it is concentration integrated over time.

Each structure is given as a SMILES string.

As to `COC(=O)N[C@H](C(=O)N1CCC[C@H]1c1nc(-c2ccc(-c3ccc(-c4c[nH]c([C@@H]5CCCN5C(=O)[C@@H](NC(=O)OC)C(C)C)n4)cc3)cc2)c[nH]1)C(C)C` [Daclatasvir, daclatasvir], in data set [1] (treatment with SMV+SOF+DCV), the “mean exposure in Child-Pugh A and Child-Pugh B subjects” value is “similar”. Further, the “Mean exposures within groups and at Wk2 vs Wk8” value in data set [2] (CP A and CP B) is given as “similar”. The “AUC, mean” value in data set [2] (Week 2, Child-Pugh A (n = 19), plasma) is 16022 ng·h/mL. Moreover, the Cmax worked out at 1150 ng/mL in data set [2] (setting [3]), 958 ng/mL in data set [2] (setting [4]), 1070 ng/mL in data set [2] (setting [5]) and 854 ng/mL in data set [2] (setting [6]). Further, the AUC in data set [2] (setting [4]) amounted to 14200 ng·h/mL; in data set [2] (setting [5]), 15600 ng·h/mL; in data set [2] (setting [6]) it was 13500 ng·h/mL.

For `C[C@@]1(F)[C@H](O)[C@@H](CO)O[C@H]1n1ccc(=O)[nH]c1=O` [GS-331007], the “mean exposure in Child-Pugh A and Child-Pugh B subjects” value in data set [1] (in vivo) is reported as “similar”.

As to `COc1ccc2c(O[C@@H]3C[C@H]4C(=O)N[C@]5(C(=O)NS(=O)(=O)C6CC6)C[C@H]5/C=C\CCCCN(C)C(=O)[C@@H]4C3)cc(-c3nc(C(C)C)cs3)nc2c1C` [Simeprevir, simeprevir], the “mean exposure, higher in Child-Pugh B subjects than in Child-Pugh A subjects” value in data set [1] (treatment with SMV+SOF+DCV) was 2.2 fold. Also, in data set [2] (CP A and CP B), the “Mean exposures for both groups, Wk2 vs Wk8” value is “comparable”. For the same compound, in data set [2] (Wk2), the “Mean SMV exposure (AUC), higher in CP B vs CP A pts” value is 1.3 fold. Besides, the “individual pt exposures in the CP B group” value in data set [2] (compared with CP A) is “within the range observed for CP A”. The area under the curve (AUC) in data set [2] (setting [3]) stood at 114000 ng·h/mL; in data set [2] (setting [4]), 144000 ng·h/mL; in data set [2] (setting [5]), 98600 ng·h/mL; in data set [2] (setting [6]), 176000 ng·h/mL. Besides, the Cmax came to 6980 ng/mL in data set [2] (setting [3]), 7950 ng/mL in data set [2] (setting [4]), 6030 ng/mL in data set [2] (setting [5]) and 8840 ng/mL in data set [2] (setting [6]).

For `CC(C)OC(=O)[C@H](C)N[P@](=O)(OC[C@H]1O[C@@H](n2ccc(=O)[nH]c2=O)[C@](C)(F)[C@@H]1O)Oc1ccccc1` [Sofosbuvir, sofosbuvir], in data set [1] (treatment with SMV+SOF+DCV), the “mean exposure, higher in Child-Pugh B subjects than in Child-Pugh A subjects” value is 1.4 fold. For the same compound, the “Mean exposures within groups and at Wk2 vs Wk8” value in data set [2] (CP A and CP B) is “similar”. Moreover, the AUC in data set [2] (setting [7]) was found to be 2860 ng·h/mL; in data set [2] (setting [8]), 3770 ng·h/mL; in data set [2] (setting [9]), 2730 ng·h/mL; in data set [2] (setting [10]) it was 3770 ng·h/mL. Also, the peak concentration (Cmax) in data set [2] (setting [7]) came out at 1570 ng/mL; in data set [2] (setting [8]), 1740 ng/mL; in data set [2] (setting [9]), 1280 ng/mL; in data set [2] (setting [10]), 1420 ng/mL.
